Broadly, the IC50 is the concentration that gives 50% inhibition.

One experiment concerns the target T1, bromodomain of BRD9 (GST fusion) / acetylated histone H4 peptide (BET Bromodomain Ligand) (Homo sapiens, UniProt Q9H8M2).
T1 construct: A GST fusion protein of the bromodomain of BRD9; purchased BPS Biosciences #32519
T1 sequence (Q9H8M2 136-240 limits assumed): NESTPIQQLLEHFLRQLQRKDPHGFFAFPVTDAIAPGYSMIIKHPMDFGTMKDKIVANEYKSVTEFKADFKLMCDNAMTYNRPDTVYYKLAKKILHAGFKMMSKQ
The experiment in a line: BRD9-H4 Tetraacetylated Peptide Inhibition AlphaScreen. It is filed as binding. The text has this: BRD9-H4 Tetraacetylated Peptide Inhibition AlphaScreen
This assay is used to identify compounds which inhibit the interaction of the bromodomain of BRD9 with a tetra-acetylated peptide based on the sequence of histone H4 (termed the “BET Bromodomain ligand” as purchased from BPS Biosciences).
A GST fusion protein of the bromodomain of BRD9 and an acetylated histone H4 peptide (the “BET Bromodomain Ligand” are purchased as part of the BRD9 Inhibitor Screening Assay Kit at BPS Biosciences (Cat. Number: #32519)
AlphaScreen Beads (Perkin Elmer):
AlphaLISA Glutathione Acceptor Beads
AlphaScreen Streptavidin Donor Beads
Assay plates: Proxiplate-384 PLUS, white (PerkinElmer)
The assay is done in a darkened room below 100 Lux.
Compounds are dispensed onto assay plates using an Access Labcyte Workstation with the Labcyte Echo 550 from a DMSO solution. For the chosen highest concentration of 100 μM, 150 nl of compound solution are transferred from a 10 mM DMSO solution. A series of 11 concentrations is transferred for each compound at which each concentration is five-fold lower than the previous one (i.e. 100 μM, 20 μM, 4 μM, 0.8 μM, etc). DMSO is added such that every well has a total of 150 nl of DMSO.
15 μl of the resulting mix are added to the assay plates that contain 150 nl of the compounds. After 60 min at room temperature the signal is measured in a PerkinElmer Envision HTS Multilabel Reader using the AlphaScreen specifications from PerkinElmer.
Each plate contains negative controls where biotinylated BET Bromodomain Ligand and GST-BRD9 are left out and replaced by assay buffer. Negative control values are entered as low basis value when using the software GraphPad Prism for calculations.
In general terms: In Alpha technology, singlet oxygen from a donor bead excites a nearby acceptor bead.
For `Cc1cc(-c2ccc(C(=O)N3CCN(C)CC3)cc2)cn(C)c1=O` [Compound I-9], inhibition was half-maximal at 172 nM (IC50).

Regarding `Cc1cc(-c2ccc(CN3CCOCC3)cc2)cn(C)c1=O` [Compound I-14], the IC50 was determined as 109 nM. This IC50 lies about 1.6-fold lower than the previous one.

As to `Cc1cc(-c2ccc(C(=O)N3CCN(C)CC3)c(F)c2)cn(C)c1=O` [Compound I-15], the midpoint of inhibition, the IC50, lay at 279 nM.

In turn, `Cc1cc(-c2cccc(OC(F)(F)F)c2)cn(C)c1=O` [Compound I-16] displayed an IC50 of 568 nM.

In turn, `Cc1c(-c2ccc(C(=O)N3CCN(C)CC3)cc2)cn(C)c(=O)c1C` [Compound I-18] showed an IC50 of 113 nM.

Regarding `Cc1ccc(-c2cn(C)c(=O)c(C)c2C)cc1N` [Compound I-19], inhibition was half-maximal at 333 nM (IC50).

The compound `Cc1ccc(-c2cc(C)c(=O)n(C)c2)cc1NS(C)(=O)=O` [Compound I-23, N-[5-(1,5-Dimethyl-6-oxo-1,6-dihydro-pyridin-3-yl)-2-methyl-phenyl]-methanesulfonamide] had an IC50 of 609 nM.

`CCn1cc(-c2ccc(C)c(NS(C)(=O)=O)c2)cc(C)c1=O` [Compound I-24] came in with an IC50 of 3310 nM. Against the preceding compound, the IC50 is about 5.4-fold higher.

With `Cc1ccc(-c2cn(C)c(=O)c(C)n2)cc1NS(C)(=O)=O` [Compound I-25], the midpoint of inhibition, the IC50, lay at 6580 nM.

`Cc1ccc(-c2cc(C)c(=O)n(C)n2)cc1NS(C)(=O)=O` [Compound I-26] gave an IC50 of 2560 nM.

In another experiment the target is T2, bromodomain of BRD9 (GST-BRD9 aa 130-259) / H3 K9/14/18/23Ac(1-28) peptide (Homo sapiens, UniProt Q9H8M2).
T2 construct: The protein corresponding to amino acids 130-259 that contains the bromodomain of BRD9; made in house; host or cells: E. coli
T2 sequence (Q9H8M2 130-259): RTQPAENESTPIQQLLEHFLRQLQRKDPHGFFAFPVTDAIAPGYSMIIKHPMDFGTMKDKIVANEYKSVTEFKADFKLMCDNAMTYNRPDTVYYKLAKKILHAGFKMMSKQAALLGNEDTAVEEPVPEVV
The experiment can be described thus: BRD9-H3 tetra-acetylated Peptide Inhibition AlphaScreen. It is filed as binding.
Method: Biological Methods BRD9-H3 tetra-acetylated Peptide Inhibition AlphaScreen
This assay is used to identify compounds which inhibit the interaction of the bromodomain of BRD9 with a tetra-acetylated peptide based on the sequence of histone H3 (H3 K9/14/18/23Ac (1-28)).
Compounds are dispensed onto assay plates using an Access Labcyte Workstation with the Labcyte Echo 550 from a DMSO solution. For the chosen highest concentration of 100 μM, 150 nl of compound solution are transferred from a 10 mM DMSO solution. […] DMSO is added such that every well has a total of 150 nl of DMSO.
Each plate contains negative controls where biotinylated H3 K9/14/18/23Ac(1-28) peptide and GST-BRD9 are left out and replaced by assay buffer. Negative control values are entered as low basis value when using the software GraphPad Prism for calculations.
In turn, `COc1cc(-c2cc(C)c(=O)n(C)c2)ccc1CN1CC(N(C)C)C1` [Compound I-206, 5-[4-(3-Dimethylamino-azetidin-1-ylmethyl)-3-methoxy-phenyl]-1,3-dimethyl-1H-pyridin-2-one] returned an IC50 of 479 nM.

In turn, `COc1cc(-c2cc(C)c(=O)n(C)c2)cc(OC)c1CN(C)C1CNC1` [Compound I-207, 5-{4-[(Azetidin-3-yl-methyl-amino)-methyl]-3,5-dimethoxy-phenyl}-1,3-dimethyl-1H-pyridin-2-one] came in with an IC50 of 93 nM.

With `COc1cc(-c2cc(C)c(=O)n(C)c2)cc(OC)c1CN(C)C1CN(C)C1` [Compound I-208, 5-(3,5-Dimethoxy-4-{[methyl-(1-methyl-azetidin-3-yl)-amino]-methyl}-phenyl)-1,3-dimethyl-1H-pyridin-2-one], 114 nM corresponded to half-maximal inhibition (IC50).

Regarding `Cc1cc(-c2ccc3c(c2)CN(C)C3)cn(C)c1=O` [Compound I-209, 1,3-Dimethyl-5-(2-methyl-2,3-dihydro-1H-isoindol-5-yl)-1H-pyridin-2-one], half-maximal inhibition (IC50) required 218 nM.

Compound `Cc1cc(-c2ccc3c(c2)CCN(C)C3)cn(C)c1=O` [Compound I-210] came in with an IC50 of 302 nM.

Compound `Cc1cc(-c2ccc3c(c2)CCN(C)C3)c(C)n(C)c1=O` [Compound I-211] registered an IC50 of 468 nM.

For `Cc1cc(-c2ccc3c(c2)CN(C)C3)c(C)n(C)c1=O` [Compound I-212], the IC50 is 750 nM.

Take `Cc1c(-c2ccc(C(N)=O)cc2)cn(C)c(=O)c1C` [Compound I-213]: the IC50 was found to be 5320 nM.

On to `Cc1cc(-c2ccc(C(=O)N3CCN(C)CC3)cc2)c(C)n(C)c1=O` [Compound I-214], for which the IC50 was 3210 nM.

In turn, `Cc1cc(-c2ccc(N3CCOCC3)cc2)c(C)n(C)c1=O` [Compound I-215] showed an IC50 of 9200 nM.

Turning to `COc1cc(-c2cn(C)c(=O)c3ccccc23)cc(OC)c1CN1CC(O)C1` [II-1, 4-[4-(3-Hydroxy-azetidin-1-ylmethyl)-3,5-dimethoxy-phenyl]-2-methyl-2H-isoquinolin-1-one], half-maximal inhibition (IC50) required 8 nM. This IC50 is about 1200-fold lower than that of the compound before.

`CN(C)Cc1ccc(-c2cn(C)c(=O)c3ccccc23)cc1` [II-5] came in with an IC50 of 916 nM. Against the preceding compound, the IC50 is about 110-fold higher.

Compound `CN1CCN(C(=O)c2ccc(-c3cn(C)c(=O)c4cnccc34)cc2)CC1` [II-8] gave an IC50 of 953 nM. The IC50 values of the last two compounds are within 1.5-fold of each other.

For the compound `Cn1cc(-c2ccc(C(N)=O)cc2)c2ccncc2c1=O` [II-9], the IC50 came to 1400 nM.

In turn, `COc1cc(-c2cn(C)c(=O)c3cncnc23)cc(OC)c1CN1CC(O)C1` [II-11] displayed an IC50 of 42 nM.

For the compound `COc1cc(-c2cn(C)c(=O)c3cncnc23)c(OC)cc1CN(C)C` [II-12], the IC50 turned out to be 344 nM.

As to `Cn1cc(-c2ccc(C(=O)N3CCNCC3)cc2)c2ncncc2c1=O` [II-13], the midpoint of inhibition, the IC50, lay at 589 nM. Against the preceding compound, the IC50 is about 1.7-fold higher.

For the compound `Cn1cc(-c2ccc(C(=O)N3CCNCC3)cc2)c2cccnc2c1=O` [II-14], the IC50 was found to be 1380 nM.

Turning to `CN1CCN(C(=O)c2ccc(-c3nn(C)c(=O)c4ccccc34)cc2)CC1` [II-17], the 50% inhibitory concentration (IC50) turned out to be 16300 nM.

`COc1cc(-c2cn(C)c(=O)c3ccc(Cn4cccn4)cc23)cc(OC)c1CN(C)C` [II-19] showed an IC50 of 31 nM.

`CN(C)Cc1ccc(-c2cn(C)c(=O)c3ccc(Cn4cccn4)cc23)cc1` [II-20] registered an IC50 of 178 nM.

With `COc1cc(-c2cn(C)c(=O)c3ncccc23)c(OC)cc1CN(C)C` [II-22], the IC50 was 2140 nM.

Regarding `COc1cc(-c2cn(C)c(=O)c3ccncc23)c(OC)cc1CN(C)C` [II-24], the IC50 stood at 609 nM.

As to `COc1cc(-c2cn(C)c(=O)c3cccnc23)c(OC)cc1CN(C)C` [II-26], the IC50 turned out to be 630 nM. The IC50 values of the last two compounds are within 1.5-fold of each other.

Compound `COc1cc(-c2cn(C)c(=O)c3cncnc23)cc(OC)c1CN1CC(N)C1` [II-30, 8-[4-(3-Amino-azetidin-1-ylmethyl)-3,5-dimethoxy-phenyl]-6-methyl-6H-pyrido[4,3-d]pyrimidin-5-one] yielded an IC50 of 5 nM.

The compound `COc1cc(-c2cn(C)c(=O)c3cnccc23)cc(OC)c1CN1CC(N)C1` [II-31] showed an IC50 of 11 nM.

Turning to `COc1cc(-c2cn(C)c(=O)c3cnccc23)cc(OC)c1CNC1CNC1` [II-32], the IC50 is 24 nM. Compared with the last compound, the IC50 is about 2.2-fold higher.

As for `COc1cc(-c2cn(C)c(=O)c3cncnc23)cc(OC)c1CNC1CNC1` [II-33], 23 nM corresponded to half-maximal inhibition (IC50).

Consider `COc1cc(-c2cn(C)c(=O)c3cnccc23)cc(OC)c1CN1CC(O)C1` [II-34], for which half-maximal inhibition (IC50) required 8 nM.

As to `COc1cc(-c2cn(C)c(=O)c3ccccc23)ccc1CN(C)C` [II-41, 4-(4-Dimethylaminomethyl-3-methoxy-phenyl)-2-methyl-2H-isoquinolin-1-one], the IC50 was 126 nM.

The compound `Cn1cc(-c2ccc(C(=O)N3CCNCC3)cc2)c2ccccc2c1=O` [II-42, 2-Methyl-4-[4-(piperazine-1-carbonyl)-phenyl]-2H-isoquinolin-1-one] had an IC50 of 439 nM.

`CN1CCN(Cc2ccc(-c3cn(C)c(=O)c4ccccc34)cc2)CC1` [II-43] gave an IC50 of 890 nM.

`C[C@@H](N)c1ccc(-c2cn(C)c(=O)c3ccccc23)cc1` [II-44] came in with an IC50 of 917 nM. This IC50 and that of the compound before are within 1.5-fold of each other.

As for `Cc1cc(-c2cn(C)c(=O)c3ccccc23)ccc1C(=O)N1CCN(C)CC1` [II-45], the IC50 came to 981 nM.

`C[C@H](N)c1ccc(-c2cn(C)c(=O)c3ccccc23)cc1` [II-46] yielded an IC50 of 1010 nM.

The compound `Cc1cc(-c2cn(C)c(=O)c3ccccc23)ccc1C(=O)N(C)C` [II-47] registered an IC50 of 1190 nM.

For `Cn1cc(-c2ccc(CN)cc2)c2ccccc2c1=O` [II-48], half-maximal inhibition (IC50) required 1550 nM.

Turning to `Cc1cc(-c2cn(C)c(=O)c3ccccc23)ccc1C(N)=O` [II-49], the midpoint of inhibition, the IC50, lay at 3140 nM.

Consider `CN1CCN(C(=O)c2ccc(-c3cn(C)c(=O)c4ncccc34)cc2)CC1` [II-50], for which the IC50 stood at 4850 nM.

`CN1CCN(C(=O)c2ccc(-c3cn(C)c(=O)c4cncnc34)cc2)CC1` [II-51] returned an IC50 of 5270 nM.

On to `COc1cc(-c2cn(C)c(=O)c3[nH]ccc23)ccc1CN1C[C@H]2C[C@@H]1CN2C` [III-2, 4-[3-Methoxy-4-((1R,4R)-5-methyl-2,5-diaza-bicyclo[2.2.1]hept-2-ylmethyl)-phenyl]-6-methyl-1,6-dihydro-pyrrolo[2,3-c]pyridin-7-one], for which half-maximal inhibition (IC50) was put at 39 nM.

The compound `COc1cc(-c2cn(C)c(=O)c3[nH]ccc23)ccc1CN1C[C@@H]2CC1CN2` [III-3] came in with an IC50 of 46 nM. The IC50 values of the last two compounds are within 1.5-fold of each other.

`COc1cc(-c2cn(C)c(=O)c3[nH]ccc23)ccc1CN1C[C@@H]2CC1CN2C` [III-4]: half-maximal inhibition (IC50) required 62 nM.

Compound `Cc1cc(-c2cn(C)c(=O)c3[nH]ccc23)ccc1C(=O)N1CCNCC1` [III-5] registered an IC50 of 68 nM.

As to `Cn1cc(-c2ccc(C(=O)N3CCNCC3)cc2)c2cc[nH]c2c1=O` [III-6], half-maximal inhibition (IC50) required 81 nM.

Compound `COc1cc(-c2cn(C)c(=O)c3[nH]ccc23)ccc1C(=O)N1CCN(C)CC1` [III-7] came in with an IC50 of 95 nM. This IC50 and that of the compound before are within 1.5-fold of each other.

Turning to `Cc1cc(-c2cn(C)c(=O)c3[nH]ccc23)ccc1C(=O)N1CCN(C)CC1` [III-8], the IC50 came to 340 nM. Against the preceding compound, the IC50 is about 3.6-fold higher.

In turn, `CN1CCN(C(=O)c2ccc(-c3cn(C)c(=O)c4[nH]ccc34)cc2)CC1` [III-9] displayed an IC50 of 391 nM.

Regarding `Cn1cc(-c2ccc(C(=O)N3CCC3)cc2)c2cc[nH]c2c1=O` [III-10], the IC50 amounted to 487 nM. The IC50 values of the last two compounds are within 1.5-fold of each other.

Values taken from US11319318B2, “Pyridinones and isoquinolinones as inhibitors of the bromodomain BRD9” (Boehringer Ingelheim International GmbH, priority 2015, dated 2022).
